ChEMBL document CHEMBL5291721, “A preclinical secondary pharmacology resource illuminates target-adverse drug reaction associations of marketed drugs” (Nat Commun, 2023)

Key:
Adenosine receptor A1 = molecular target: T1, Adenosine receptor A1 (Homo sapiens, UniProt P30542)
T1 sequence (P30542 whole entry): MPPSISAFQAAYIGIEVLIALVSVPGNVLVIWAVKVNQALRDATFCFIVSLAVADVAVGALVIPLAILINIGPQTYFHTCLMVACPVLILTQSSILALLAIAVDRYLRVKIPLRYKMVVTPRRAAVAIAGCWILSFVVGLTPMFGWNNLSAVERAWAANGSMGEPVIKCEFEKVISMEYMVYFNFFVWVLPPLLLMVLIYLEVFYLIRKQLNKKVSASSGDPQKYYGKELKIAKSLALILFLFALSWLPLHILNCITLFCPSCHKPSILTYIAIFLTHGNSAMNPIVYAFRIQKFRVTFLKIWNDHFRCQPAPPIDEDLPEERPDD

Adenosine receptor A3 = molecular target: T2, Adenosine receptor A3 (Homo sapiens, UniProt P0DMS8)
T2 sequence (P0DMS8 whole entry): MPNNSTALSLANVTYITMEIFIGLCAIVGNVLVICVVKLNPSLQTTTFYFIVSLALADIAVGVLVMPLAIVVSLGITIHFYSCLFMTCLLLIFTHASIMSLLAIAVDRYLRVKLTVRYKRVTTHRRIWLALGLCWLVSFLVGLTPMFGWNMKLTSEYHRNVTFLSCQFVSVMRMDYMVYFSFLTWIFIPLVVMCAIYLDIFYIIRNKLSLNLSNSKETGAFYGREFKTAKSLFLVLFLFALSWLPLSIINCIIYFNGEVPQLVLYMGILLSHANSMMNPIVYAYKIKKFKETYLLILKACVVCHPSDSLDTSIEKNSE

[1] = molecular target: T3, Alpha-2B adrenergic receptor (Homo sapiens, UniProt P18089)
T3 sequence (P18089 whole entry): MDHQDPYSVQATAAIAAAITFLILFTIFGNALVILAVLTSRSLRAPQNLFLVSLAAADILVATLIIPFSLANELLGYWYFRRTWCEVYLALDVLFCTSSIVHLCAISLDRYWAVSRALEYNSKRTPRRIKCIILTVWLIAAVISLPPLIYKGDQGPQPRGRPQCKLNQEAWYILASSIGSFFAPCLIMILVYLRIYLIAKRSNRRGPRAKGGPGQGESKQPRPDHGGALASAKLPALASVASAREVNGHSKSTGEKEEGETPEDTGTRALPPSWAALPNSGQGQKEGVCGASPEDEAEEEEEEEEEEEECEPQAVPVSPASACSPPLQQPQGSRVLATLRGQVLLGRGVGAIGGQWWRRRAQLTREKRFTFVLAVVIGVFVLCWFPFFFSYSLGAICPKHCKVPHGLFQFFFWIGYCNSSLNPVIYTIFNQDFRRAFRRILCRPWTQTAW

Cannabinoid receptor 1 = Cannabinoid receptor 1 (Homo sapiens, UniProt P21554); type: functional, cell-based
[2] = molecular target: Glutamate receptor ionotropic, NMDA 1 (Rattus norvegicus, UniProt P35439)
Histamine H1 receptor = Histamine H1 receptor (Homo sapiens, UniProt P35367)
Histamine H2 receptor = Histamine H2 receptor (Homo sapiens, UniProt P25021); type: functional, cell-based
Melanocortin receptor 3 = Melanocortin receptor 3 (Homo sapiens, UniProt P41968)
Motilin receptor = Motilin receptor (Homo sapiens, UniProt O43193)
[3] = molecular target: T4, Neuropeptide Y receptor type 1 (Homo sapiens, UniProt P25929)
T4 sequence (P25929 whole entry): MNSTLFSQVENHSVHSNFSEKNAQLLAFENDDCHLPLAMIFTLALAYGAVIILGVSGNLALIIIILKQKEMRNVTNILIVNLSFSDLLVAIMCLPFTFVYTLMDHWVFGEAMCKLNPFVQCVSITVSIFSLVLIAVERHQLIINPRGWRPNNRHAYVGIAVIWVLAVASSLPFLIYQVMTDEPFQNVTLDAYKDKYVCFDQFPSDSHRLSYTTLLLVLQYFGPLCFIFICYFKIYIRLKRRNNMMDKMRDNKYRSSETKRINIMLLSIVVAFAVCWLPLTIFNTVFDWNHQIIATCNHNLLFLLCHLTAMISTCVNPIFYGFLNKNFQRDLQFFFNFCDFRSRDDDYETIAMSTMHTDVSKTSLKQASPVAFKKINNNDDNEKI

Thromboxane A2 receptor = molecular target: T5, Thromboxane A2 receptor (Homo sapiens, UniProt P21731)
T5 sequence (P21731 whole entry): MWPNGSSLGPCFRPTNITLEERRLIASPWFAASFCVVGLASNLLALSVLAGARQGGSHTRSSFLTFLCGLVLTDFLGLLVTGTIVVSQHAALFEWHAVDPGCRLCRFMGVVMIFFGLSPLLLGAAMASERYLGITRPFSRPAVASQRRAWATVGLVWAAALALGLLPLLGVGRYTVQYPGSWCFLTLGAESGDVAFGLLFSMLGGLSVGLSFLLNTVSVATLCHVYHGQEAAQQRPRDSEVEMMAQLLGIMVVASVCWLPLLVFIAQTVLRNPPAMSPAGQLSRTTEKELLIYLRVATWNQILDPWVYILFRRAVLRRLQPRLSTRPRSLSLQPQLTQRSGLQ

[4] = molecular target: Sodium-dependent dopamine transporter (Homo sapiens, UniProt Q01959)
[5] = molecular target: Sodium-dependent noradrenaline transporter (Homo sapiens, UniProt P23975)
[6] = molecular target: T6, Alpha-1A adrenergic receptor (Homo sapiens, UniProt P35348); type: functional, cell-based
T6 sequence (P35348 whole entry): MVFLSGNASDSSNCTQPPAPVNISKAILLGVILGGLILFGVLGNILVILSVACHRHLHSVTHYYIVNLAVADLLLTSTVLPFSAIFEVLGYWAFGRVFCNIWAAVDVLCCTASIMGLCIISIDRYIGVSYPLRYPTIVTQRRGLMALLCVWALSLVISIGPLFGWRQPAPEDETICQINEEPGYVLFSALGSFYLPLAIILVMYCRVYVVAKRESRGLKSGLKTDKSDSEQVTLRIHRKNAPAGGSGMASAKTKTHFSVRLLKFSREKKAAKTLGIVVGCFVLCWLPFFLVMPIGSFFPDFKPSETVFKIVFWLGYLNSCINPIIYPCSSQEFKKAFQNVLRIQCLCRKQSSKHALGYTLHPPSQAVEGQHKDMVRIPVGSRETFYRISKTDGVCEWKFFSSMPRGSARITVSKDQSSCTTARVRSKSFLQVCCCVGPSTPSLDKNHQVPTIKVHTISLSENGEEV
Further: assay procedure not described here.

Sequence of Sodium-dependent dopamine transporter (Q01959 whole entry): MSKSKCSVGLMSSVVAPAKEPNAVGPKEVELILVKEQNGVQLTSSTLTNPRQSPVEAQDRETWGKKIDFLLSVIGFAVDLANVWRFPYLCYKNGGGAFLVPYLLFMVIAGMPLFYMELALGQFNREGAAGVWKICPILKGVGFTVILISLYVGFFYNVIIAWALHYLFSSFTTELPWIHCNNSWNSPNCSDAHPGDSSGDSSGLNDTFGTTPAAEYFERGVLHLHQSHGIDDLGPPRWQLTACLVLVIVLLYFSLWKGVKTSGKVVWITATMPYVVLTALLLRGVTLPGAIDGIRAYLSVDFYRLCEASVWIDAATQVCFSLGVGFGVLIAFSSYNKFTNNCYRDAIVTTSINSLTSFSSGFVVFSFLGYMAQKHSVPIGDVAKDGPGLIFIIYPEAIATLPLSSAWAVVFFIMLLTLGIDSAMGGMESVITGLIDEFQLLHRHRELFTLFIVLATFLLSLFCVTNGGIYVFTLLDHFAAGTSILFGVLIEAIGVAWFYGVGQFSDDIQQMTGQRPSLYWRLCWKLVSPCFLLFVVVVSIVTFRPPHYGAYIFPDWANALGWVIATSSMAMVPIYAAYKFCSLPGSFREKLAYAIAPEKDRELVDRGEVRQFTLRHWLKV
Sequence of Sodium-dependent noradrenaline transporter (P23975 whole entry): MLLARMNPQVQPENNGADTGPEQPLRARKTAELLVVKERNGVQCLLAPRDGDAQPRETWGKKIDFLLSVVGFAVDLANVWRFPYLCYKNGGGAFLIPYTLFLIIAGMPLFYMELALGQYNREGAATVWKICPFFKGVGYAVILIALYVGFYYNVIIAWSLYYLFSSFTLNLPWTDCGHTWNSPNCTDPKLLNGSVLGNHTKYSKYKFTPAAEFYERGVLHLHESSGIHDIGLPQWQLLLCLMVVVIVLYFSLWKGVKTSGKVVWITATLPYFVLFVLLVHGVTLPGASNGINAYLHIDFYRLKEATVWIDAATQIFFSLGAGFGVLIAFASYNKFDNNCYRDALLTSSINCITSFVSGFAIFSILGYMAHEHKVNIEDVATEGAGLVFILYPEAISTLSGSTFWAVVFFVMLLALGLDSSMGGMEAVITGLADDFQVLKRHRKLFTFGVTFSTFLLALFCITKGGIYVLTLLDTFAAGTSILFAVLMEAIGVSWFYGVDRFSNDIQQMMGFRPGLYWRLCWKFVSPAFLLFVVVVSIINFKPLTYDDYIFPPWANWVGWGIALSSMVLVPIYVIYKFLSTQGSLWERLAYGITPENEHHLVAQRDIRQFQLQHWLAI
Sequence of Melanocortin receptor 3 (P41968 whole entry): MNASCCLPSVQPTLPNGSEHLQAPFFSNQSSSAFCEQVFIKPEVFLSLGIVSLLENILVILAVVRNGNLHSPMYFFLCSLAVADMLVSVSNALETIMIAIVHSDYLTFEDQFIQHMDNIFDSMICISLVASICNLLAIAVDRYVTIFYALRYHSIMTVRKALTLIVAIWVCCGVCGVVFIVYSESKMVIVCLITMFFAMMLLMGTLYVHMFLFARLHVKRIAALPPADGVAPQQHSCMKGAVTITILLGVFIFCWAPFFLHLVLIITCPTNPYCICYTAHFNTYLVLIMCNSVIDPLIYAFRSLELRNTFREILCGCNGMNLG
Sequence of Histamine H1 receptor (P35367 whole entry): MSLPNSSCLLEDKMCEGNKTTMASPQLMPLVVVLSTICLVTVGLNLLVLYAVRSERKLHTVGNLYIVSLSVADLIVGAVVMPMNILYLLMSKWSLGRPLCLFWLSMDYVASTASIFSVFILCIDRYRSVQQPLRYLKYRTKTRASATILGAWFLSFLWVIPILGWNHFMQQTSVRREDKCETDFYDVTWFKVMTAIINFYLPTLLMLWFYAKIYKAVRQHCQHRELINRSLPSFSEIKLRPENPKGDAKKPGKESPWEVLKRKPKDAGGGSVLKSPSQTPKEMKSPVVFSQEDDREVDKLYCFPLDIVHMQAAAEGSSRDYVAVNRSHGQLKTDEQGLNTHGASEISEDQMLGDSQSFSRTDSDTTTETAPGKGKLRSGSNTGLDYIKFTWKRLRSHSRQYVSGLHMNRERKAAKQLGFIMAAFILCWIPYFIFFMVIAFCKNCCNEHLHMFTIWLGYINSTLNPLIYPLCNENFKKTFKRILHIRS
Sequence of Motilin receptor (O43193 whole entry): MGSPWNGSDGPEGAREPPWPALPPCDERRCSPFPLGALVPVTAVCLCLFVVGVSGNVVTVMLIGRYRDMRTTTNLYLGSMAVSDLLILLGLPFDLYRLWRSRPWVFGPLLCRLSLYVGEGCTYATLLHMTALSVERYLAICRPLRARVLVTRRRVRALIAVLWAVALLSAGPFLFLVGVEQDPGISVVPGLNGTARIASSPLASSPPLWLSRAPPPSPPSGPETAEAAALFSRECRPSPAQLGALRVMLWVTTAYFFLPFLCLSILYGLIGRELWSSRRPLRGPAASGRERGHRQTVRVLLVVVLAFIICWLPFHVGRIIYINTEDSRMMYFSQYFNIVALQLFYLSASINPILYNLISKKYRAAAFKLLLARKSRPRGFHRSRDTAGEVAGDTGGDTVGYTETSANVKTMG
Sequence of Histamine H2 receptor (P25021 whole entry): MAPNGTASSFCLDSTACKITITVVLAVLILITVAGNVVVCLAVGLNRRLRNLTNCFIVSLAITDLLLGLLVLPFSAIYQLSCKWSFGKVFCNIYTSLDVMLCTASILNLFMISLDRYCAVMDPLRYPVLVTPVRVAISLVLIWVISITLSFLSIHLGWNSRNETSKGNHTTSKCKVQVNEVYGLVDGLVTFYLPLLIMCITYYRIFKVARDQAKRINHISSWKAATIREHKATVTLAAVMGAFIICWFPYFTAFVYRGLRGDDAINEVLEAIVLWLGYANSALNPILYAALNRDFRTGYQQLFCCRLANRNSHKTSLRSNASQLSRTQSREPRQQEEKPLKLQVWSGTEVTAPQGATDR
Sequence of Cannabinoid receptor 1 (P21554 whole entry): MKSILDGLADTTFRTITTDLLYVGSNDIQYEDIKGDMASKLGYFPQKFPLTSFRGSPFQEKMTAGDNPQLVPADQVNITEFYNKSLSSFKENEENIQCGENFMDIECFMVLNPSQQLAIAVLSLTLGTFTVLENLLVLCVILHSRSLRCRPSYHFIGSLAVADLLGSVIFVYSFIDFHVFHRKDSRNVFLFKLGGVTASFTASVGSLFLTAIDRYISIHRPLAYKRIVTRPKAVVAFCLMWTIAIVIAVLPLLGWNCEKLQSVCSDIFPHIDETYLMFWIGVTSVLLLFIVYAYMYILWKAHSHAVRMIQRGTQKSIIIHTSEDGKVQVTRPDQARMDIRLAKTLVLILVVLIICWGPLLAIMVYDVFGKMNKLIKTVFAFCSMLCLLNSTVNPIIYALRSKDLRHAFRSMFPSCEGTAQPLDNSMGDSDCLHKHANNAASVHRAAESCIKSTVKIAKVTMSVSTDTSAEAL

| Structure (SMILES) | AC50 (Adenosine receptor A1) | AC50 (Adenosine receptor A3) | AC50 [1] | AC50 (Cannabinoid receptor 1) | AC50 [2] | AC50 (Histamine H1 receptor) | AC50 (Histamine H2 receptor) | AC50 (Melanocortin receptor 3) | AC50 (Motilin receptor) | AC50 [3] | AC50 (Thromboxane A2 receptor) | AC50 [4] | AC50 [5] | AC50 [6] |
| --- | --- | --- | --- | --- | --- | --- | --- | --- | --- | --- | --- | --- | --- | --- |
| CCOC(=O)[C@H](CCc1ccccc1)N[C@H]1CCCN2CCC[C@@H](C(=O)O)N2C1=O [CILAZAPRIL] | > 30 µM | > 30 µM | > 30 µM | > 30 µM | > 30 µM | > 30 µM | > 30 µM | > 30 µM | > 30 µM | > 30 µM | > 30 µM | > 30 µM | > 30 µM | > 30 µM |
| CN1CCN(C(=O)OC2c3nccnc3C(=O)N2c2ccc(Cl)cn2)CC1 (centres undefined) [ZOPICLONE] | > 30 µM | 18.3 µM | > 30 µM | > 30 µM | > 10 µM | > 30 µM | > 10 µM | > 30 µM | > 30 µM | > 30 µM | > 30 µM | > 30 µM | > 30 µM | > 30 µM |
| Cc1cc(-c2ccccc2)nnc1NCCN1CCOCC1 [MINAPRINE] | > 30 µM | > 30 µM | > 10 µM | > 30 µM | > 10 µM | > 10 µM | > 10 µM | > 30 µM | > 10 µM | > 30 µM | > 30 µM | > 10 µM | > 10 µM | > 30 µM |
| COc1ccc2cccc(CCNC(C)=O)c2c1 [AGOMELATINE] | > 30 µM | > 30 µM | > 10 µM | > 30 µM | > 10 µM | > 10 µM | > 30 µM | > 30 µM | > 10 µM | > 30 µM | > 30 µM | > 10 µM | > 10 µM | > 30 µM |
| O=C(OCCN1CCOCC1)c1cccnc1Nc1cccc(C(F)(F)F)c1 [MORNIFLUMATE] | > 30 µM | > 30 µM | > 30 µM | > 30 µM | > 30 µM | > 30 µM | > 30 µM | > 30 µM | > 30 µM | > 30 µM | > 30 µM | 12 µM | 17 µM | > 30 µM |
| COc1ccc(C(=O)NCc2ccc(OCCN(C)C)cc2)cc1OC [ITOPRIDE] | > 30 µM | > 30 µM | > 30 µM | > 30 µM | > 30 µM | > 30 µM | > 30 µM | > 30 µM | > 30 µM | > 30 µM | > 30 µM | > 30 µM | > 30 µM | > 30 µM |
